Laboratory results reported in patent publication US20150065347A1, “CO-CRYSTALS OF DICAMBA AND A CO-CRYSTAL FORMER B” (priority 2012, published 2015).
Converted amounts (≈) assume the structure as drawn.

How the values were obtained:
[1] = Isothermal TGA volatility study; format: physicochemical; settings: isothermal TGA at 100° C., weight loss monitored for 12 hours, nitrogen flow
Protocol: TG/DTA measurement was carried out on a Seiko TG/DTA 7200 instrument. An open aluminium pan was used and the measurement was carried out under nitrogen flow with a sample weight of 5 to 10 mg. The isothermal TGA for volatility studies were performed at 100° C. and the weight loss was monitored for 12 hours.

[2] = Water solubility of the co-crystals (slurry equilibration, HPLC); format: physicochemical; settings: water suspension (slurry), thermodynamic from solid; water suspensions slurried for 24 hours, filtered, liquid phase by HPLC, room temperature
Protocol: The determination of the amount of the actives in solution was performed on HPLC ACQUITY (Water) system, equipped with PDA—230 nm UV detector and Sample Manager auto-injector. Waters' Enpower software was used to record the chromatograms and to calculate the chromatographic parameters. […] Injection volume was set 1 μL by auto injector. The analysis were performed with rate flux of 0.4 ml/min. UV detection was performed at 245 nm. Peak identities were confirmed by spectrum and retention time comparison. All the analyses were performed at room temperature. All the analyzed solutions were prepared by slurry equilibration experiments. […] The suspensions were filtered and both solid phase and liquid phase were analyzed by XRPD and HPLC, respectively.

Structure (SMILES): COc1c(Cl)ccc(Cl)c1C(=O)O [Dicamba, 3,6-dichloro-2-methoxybenzoic acid]
- TGA Volatility (% weight loss per minute) [1]: 1.20 × 10^−2 % weight loss per minute
- solubility at 24 h [2]: 6550 µg/mL (≈ 29.6 mM)
